The results in this text go back to PMC8286840, “Identifying SARS-CoV-2 antiviral compounds by screening for small molecule inhibitors of Nsp3 papain-like protease” (Biochemical Journal, 2021).

Counter-ions that a name gives are not always drawn. Like-named read-outs stand apart in the source and are kept apart here.

The target in assay [1] is T1, SARS-CoV-2 PLpro (nsp3 1564–1878) (Severe acute respiratory syndrome coronavirus 2, UniProt P0DTD1). Description: biochemical. Also on record: FRET-quenched peptide (Pro3) cleavage by PLpro, 10 min pre-incubation, slope over 20 min, normalised to no-compound control. To be noted: low concentration screen, read-out: % of control remaining.
For assay [2], the target named is T1, SARS-CoV-2 PLpro (nsp3 1564–1878). Description: biochemical. More on the design: FRET-quenched peptide (Pro3) cleavage by PLpro, 10 min pre-incubation, slope over 20 min, normalised to no-compound control. The settings on record: high concentration screen, read-out: % of control remaining.

As to `NC(=O)OCC(COC(N)=O)c1ccccc1` [Felbamate], the figures for the remaining activity at 1.25 µM in assay [1] (Well no.=609) and in assay [1] (Well no.=1543) were 101% and 102%, respectively. Further, the remaining activity at 3.75 µM in assay [2] (Well no.=609) amounted to 104%; in assay [2] (Well no.=1543) it was 101%.

As to `CCOC(=O)C1=C(C)NC(C)=C(C(=O)OC)C1c1cccc(Cl)c1Cl` (stereo not drawn) [Felodipine], the remaining activity at 1.25 µM stood at 106% in assay [1] (Well no.=521) and 99.7% in assay [1] (Well no.=1757). In addition, the remaining activity at 3.75 µM in assay [2] (Well no.=1757) was 102%.

`COC(=O)Nc1nc2cc(Sc3ccccc3)ccc2[nH]1` [Fenbendazole]: the remaining activity at 1.25 µM in assay [1] (Well no.=2076) is 105%. In assay [2] (Well no.=2076), the remaining activity at 3.75 µM came out at 102%.

Take `O=C(O)CCC(=O)c1ccc(-c2ccccc2)cc1` [Fenbufen]: the remaining activity at 1.25 µM in assay [1] (Well no.=2078) was 100%. In addition, in assay [2] (Well no.=2078), the remaining activity at 3.75 µM amounted to 102%.

For `CC(C)OC(=O)C(C)(C)Oc1ccc(C(=O)c2ccc(Cl)cc2)cc1` [Fenofibrate], the remaining activity at 1.25 µM in assay [1] (Well no.=421) came out at 97.6%; in assay [1] (Well no.=2084), 99.9%. Moreover, the remaining activity at 3.75 µM in assay [2] (Well no.=421) is 101%; in assay [2] (Well no.=2084), 102%.

With `CC(C)(Oc1ccc(C(=O)c2ccc(Cl)cc2)cc1)C(=O)O` [Fenofibric acid], in assay [1] (Well no.=8204), the remaining activity at 1.25 µM stood at 106%. In addition, the remaining activity at 3.75 µM in assay [2] (Well no.=8204) came to 104%.

As for `Oc1ccc(C2CNCCc3c2cc(O)c(O)c3Cl)cc1` (stereo not drawn) [Fenoldopam (mesylate)], the remaining activity at 1.25 µM in assay [1] (Well no.=6267) was found to be 106%. The remaining activity at 3.75 µM in assay [2] (Well no.=6267) amounted to 103%.

For the molecule `Oc1ccc(C2CNCCc3c2cc(O)c(O)c3Cl)cc1` (stereo not drawn) [Fenoldopam bromide], the remaining activity at 1.25 µM in assay [1] (Well no.=757) was found to be 98.2%. Also, the remaining activity at 3.75 µM in assay [2] (Well no.=757) stood at 96.8%.

With `CC(C(=O)O)c1cccc(Oc2ccccc2)c1` (stereo not drawn) [Fenoprofen], in assay [1] (Well no.=2082), the remaining activity at 1.25 µM came out at 98.6%. Moreover, the remaining activity at 3.75 µM in assay [2] (Well no.=2082) was found to be 99.2%.

`CC(Cc1ccc(O)cc1)NCC(O)c1cc(O)cc(O)c1` (stereo not drawn) [Fenoterol hydrobromide]: the remaining activity at 1.25 µM in assay [1] (Well no.=705) is 104%. For the same molecule, the remaining activity at 3.75 µM in assay [2] (Well no.=705) came out at 100%.

Consider `CC1=C(/C=C/C(C)=C/C=C/C(C)=C/C(=O)Nc2ccc(O)cc2)C(C)(C)CCC1` [Fenretinide], for which the remaining activity at 1.25 µM in assay [1] (Well no.=1577) turned out to be 92.1%. The remaining activity at 3.75 µM in assay [2] (Well no.=1577) came to 92.2%.

`O=C1NCC2(CCN(CCc3ccccc3)CC2)O1` [Fenspiride (Hydrochloride)]: the remaining activity at 1.25 µM in assay [1] (Well no.=6705) is 104%. The remaining activity at 3.75 µM in assay [2] (Well no.=6705) worked out at 100%.

For `O=C1NCC2(CCN(CCc3ccccc3)CC2)O1` [Fenspiride hydrochloride], in assay [1] (Well no.=469), the remaining activity at 1.25 µM was 99.1%. Moreover, the remaining activity at 3.75 µM in assay [2] (Well no.=469) was 103%.

Consider `O=C(O)Cc1sc(-c2ccccc2)nc1-c1ccc(Cl)cc1` [Fentiazac], for which the remaining activity at 1.25 µM in assay [1] (Well no.=1772) came to 100%. Also, the remaining activity at 3.75 µM in assay [2] (Well no.=1772) was found to be 97.2%.

Turning to `Clc1ccc(C(Cn2ccnc2)OCc2ccc(Sc3ccccc3)cc2)c(Cl)c1` (stereo not drawn) [Fenticonazole nitrate], in assay [1] (Well no.=5044), the remaining activity at 1.25 µM was found to be 96.2%. Moreover, the remaining activity at 3.75 µM in assay [2] (Well no.=5044) was determined as 95.9%.

On to `C/C1=C/CCC(C)(O)/C=C\C(C(C)C)C(OC(=O)c2ccc(O)cc2)C1` (stereo not drawn) [Feroline], for which the remaining activity at 1.25 µM in assay [1] (Well no.=3493) turned out to be 101%. For the same molecule, in assay [2] (Well no.=3493), the remaining activity at 3.75 µM was determined as 99.5%.

As for `CCOC(=O)c1ccc(NC2CCCCC2)c(N)c1` [Ferrostatin-1], in assay [1] (Well no.=6252), the remaining activity at 1.25 µM stood at 103%. Further, in assay [2] (Well no.=6252), the remaining activity at 3.75 µM amounted to 98%.

For `COc1cc(/C=C/C(=O)O)ccc1O` [Ferulic acid (sodium)], the remaining activity at 1.25 µM in assay [1] (Well no.=8535) came to 107%. Also, in assay [2] (Well no.=8535), the remaining activity at 3.75 µM worked out at 106%.

With `CCOC(=O)/C=C/c1ccc(O)c(OC)c1` [Ferulic acid ethylester], in assay [1] (Well no.=3853), the remaining activity at 1.25 µM is 97.6%. For the same molecule, the remaining activity at 3.75 µM in assay [2] (Well no.=3853) amounted to 103%.

For `COc1cc(/C=C/C(=O)O)ccc1O` [Ferulic acid], the remaining activity at 1.25 µM in assay [1] (Well no.=3518) was determined as 98.9%. Also, the remaining activity at 3.75 µM in assay [2] (Well no.=3518) turned out to be 100%.

As for `Cc1c(CC(=O)O)c2cccnc2n1Cc1ccc(S(C)(=O)=O)cc1C(F)(F)F` [Fevipiprant], the remaining activity at 1.25 µM in assay [1] (Well no.=7767) was found to be 106%. Moreover, in assay [2] (Well no.=7767), the remaining activity at 3.75 µM is 106%.

`COC(=O)/C=C/c1cccc(N(Cc2ccc(-c3ccc(N(C)C)cc3)cc2)C(=O)C2CCCCC2)c1` [Fexaramine]: the remaining activity at 1.25 µM in assay [1] (Well no.=5559) was 97.4%. Moreover, in assay [2] (Well no.=5559), the remaining activity at 3.75 µM is 104%.

For the molecule `CC(C)(C(=O)O)c1ccc(C(O)CCCN2CCC(C(O)(c3ccccc3)c3ccccc3)CC2)cc1` (stereo not drawn) [Fexofenadine (hydrochloride)], the remaining activity at 1.25 µM in assay [1] (Well no.=6619) is 104%. Also, in assay [2] (Well no.=6619), the remaining activity at 3.75 µM came out at 105%.

As to `CC(C)(C(=O)O)c1ccc(C(O)CCCN2CCC(C(O)(c3ccccc3)c3ccccc3)CC2)cc1` (stereo not drawn) [Fexofenadine hydrochloride], the remaining activity at 1.25 µM in assay [1] (Well no.=425) was determined as 93.1%. In addition, in assay [2] (Well no.=425), the remaining activity at 3.75 µM is 92.8%.

With `COc1cccc2c1[C@@H]1CN(CCCCn3c(=O)[nH]c4c(sc5ncc(-c6ccccc6)nc54)c3=O)C[C@@H]1CO2` [Fiduxosin hydrochloride], the remaining activity at 1.25 µM in assay [1] (Well no.=611) worked out at 97.2%. Moreover, the remaining activity at 3.75 µM in assay [2] (Well no.=611) turned out to be 97.4%.

As to `COc1cc(C(=O)OC2CC3CCC(C2)N3C)ccc1O` (stereo not drawn) [Fillalbin], the remaining activity at 1.25 µM in assay [1] (Well no.=3539) amounted to 92.8%. Further, the remaining activity at 3.75 µM in assay [2] (Well no.=3539) came to 97.4%.

As for `CCCCc1nc(C)c(CC(=S)N(C)C)c(=O)n1Cc1ccc(-c2ccccc2-c2nnn[nH]2)cc1` [Fimasartan], in assay [1] (Well no.=6183), the remaining activity at 1.25 µM came to 107%. The remaining activity at 3.75 µM in assay [2] (Well no.=6183) came out at 103%.

On to `CC(C)(C)NC(=O)[C@H]1CC[C@H]2[C@@H]3CC[C@H]4NC(=O)C=C[C@]4(C)[C@H]3CC[C@]12C` [Finasteride], for which the remaining activity at 1.25 µM in assay [1] (Well no.=2086) amounted to 99%. Also, in assay [2] (Well no.=2086), the remaining activity at 3.75 µM came out at 104%.

On to `CCOCc1cc(OC)c(-c2ccc(C[C@H](NC(=O)c3c(F)cccc3F)C(=O)O)cc2)c(OC)c1` [Firategrast], for which, in assay [1] (Well no.=7930), the remaining activity at 1.25 µM came out at 103%. Besides, in assay [2] (Well no.=7930), the remaining activity at 3.75 µM turned out to be 99%.

Take `O=c1c(O)c(-c2ccc(O)c(O)c2)oc2cc(O)ccc12` [Fisetin]: the values for the remaining activity at 1.25 µM in assay [1] (Well no.=3443) and in assay [1] (Well no.=6254) were 91.4% and 104%, respectively. The remaining activity at 3.75 µM worked out at 95% in assay [2] (Well no.=3443) and 99.6% in assay [2] (Well no.=6254).

With `O=C1C[C@@H](c2ccc(O)c(O)c2)Oc2c1ccc(O[C@@H]1O[C@H](CO)[C@@H](O)[C@H](O)[C@H]1O)c2O` [Flavanomarein], the remaining activity at 1.25 µM in assay [1] (Well no.=3805) came out at 96.3%. Moreover, the remaining activity at 3.75 µM in assay [2] (Well no.=3805) turned out to be 100%.
